The source of these data is patent EP1428519A2, “5-Lipooxygenase inhibitors in deodorants and antiperspirants” (Henkel Kommanditgesellschaft auf Aktien, priority 2002, dated 2004).

Structures can show the parent of a compound that is named as a salt.

The target in the test is T1, 5-Lipoxigenase (Homo sapiens, UniProt P09917).
T1 construct: durch Ultraschallbehandlung aufgeschlossen; Größere Zellbestandteile wurden bei 100 000 g abzentrifugiert, wobei 5-Lipoxigenase im Überstand verblieb; endogenous in cells; sonicated; 100 000 g supernatant
T1 sequence (P09917 1-674): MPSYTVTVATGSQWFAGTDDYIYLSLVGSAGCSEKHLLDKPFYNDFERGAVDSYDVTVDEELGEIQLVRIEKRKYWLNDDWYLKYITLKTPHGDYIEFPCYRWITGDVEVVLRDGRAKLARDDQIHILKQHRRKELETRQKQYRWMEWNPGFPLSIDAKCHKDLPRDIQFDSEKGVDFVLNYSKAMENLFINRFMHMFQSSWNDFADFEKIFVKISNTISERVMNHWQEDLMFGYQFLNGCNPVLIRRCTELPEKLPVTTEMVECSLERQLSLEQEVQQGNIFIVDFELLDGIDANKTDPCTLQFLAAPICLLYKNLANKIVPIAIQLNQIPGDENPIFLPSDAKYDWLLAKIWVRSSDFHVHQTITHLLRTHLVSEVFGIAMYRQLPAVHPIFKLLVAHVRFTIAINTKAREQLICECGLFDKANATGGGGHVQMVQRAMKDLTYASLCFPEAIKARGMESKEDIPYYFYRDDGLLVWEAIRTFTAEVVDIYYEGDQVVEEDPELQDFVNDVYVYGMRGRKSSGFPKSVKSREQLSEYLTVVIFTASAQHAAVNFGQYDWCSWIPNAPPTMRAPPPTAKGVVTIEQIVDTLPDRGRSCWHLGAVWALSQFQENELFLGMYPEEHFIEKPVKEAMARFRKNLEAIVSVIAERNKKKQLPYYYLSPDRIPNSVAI
Briefly: 5-lipoxygenase inhibition in vitro (supernatant of differentiated leukaemia cells, leukotrienes quantified by HPLC). The class given is biochemical, menschlichen. The settings on record: 100 µg raw material as is per ml supernatant; 30 s preincubation at 37° C, 10 min reaction with arachidonic acid; activity without test substance = 100 %; solvent per substance (Ethanol, Wasser or DMSO). From the text:
Die 5-Lipoxigenase wurde aus menschlichen Leukämie-Zelllinien durch Zugabe von Dimethylsulfoxid (DMSO), TGF-β1 (transforming growth factor β1) und Dihydroxyvitamin D3 differenziert und dabei zugleich die 5-Lipoxigenase induziert. Nach 4 Tagen im Differenzierungsmedium wurden die Zellen geerntet, in einem Glucose-haltigen PBS-Puffer aufgenommen und durch Ultraschallbehandlung aufgeschlossen. Größere Zellbestandteile wurden bei 100 000 g abzentrifugiert, wobei 5-Lipoxigenase im Überstand verblieb.
Die Bestimmung der 5-Lipoxigenase-Inhibitionswirkung erfolgte gemäß Werz et al., Naunyn-Schmiedeberg's Arch. Pharmacol., 1997, Vol. 456, 441 - 445.
Dem Überstand aus der 5-Lipoxigenase-Herstellung wurden Adenosintriphosphat (ATP) und die zu testenden Rohstoffe zugesetzt. Im vorliegenden Falle wurden 100 µg Rohstoff, so wie er ist, pro Milliliter Überstand eingesetzt. Als Lösemittel wurden je nach Substanz Wasser, Ethanol, DMSO oder Chloroform verwendet.
Die Ansätze wurden für 30 Sekunden bei 37° C vorinkubiert. Anschließend wurde die 5-Lipoxigenase-Reaktion durch Zusatz von Arachidonsäure gestartet. Nach 10 Minuten Reaktionszeit wurde die Reaktion durch Zugabe von Methanol gestoppt. Die durch die Einwirkung der 5-Lipoxigenase auf Arachidonsäure produzierten Leukotriene wurden mittels HPLC quantifiziert. Die Aktivität von 5-Lipoxigenase ohne Zugabe von Testsubstanz wurde zu 100 % gesetzt und die Aktivität der 5-Lipoxigenase mit Hemmstoff darauf bezogen. In Tabelle 1 ist die Hemmwirkung der einzelnen Testsubstanzen in % angegeben.
Take `O=C(O)CCCCC1CCSS1` (stereo not drawn) [α-Liponsäure, reference compound]: the Hemmwirkung was 40,4%. Then `CC[C@H](CC[C@@H](C)[C@H]1CC[C@H]2[C@@H]3CC=C4C[C@@H](OS(=O)(=O)O)CC[C@]4(C)[C@H]3CC[C@]12C)C(C)C` [Phytocohesine, Sodium Beta-Sitosteryl Sulfate], with 62,8%; and `CC(C)=CCCC(C)(O)C1CC=C(C)CC1` (stereo not drawn) [α-Bisabolol], with 90,3%.
